Converted amounts (≈) assume the structure as drawn.

The IC50 is the midpoint of a concentration-inhibition curve. Broadly, the MIC is the least concentration at which growth counts as inhibited.

In one test the test system is MCF7. As to the kind of experiment: Antiproliferative activity against human MCF7 cells assessed as cell growth inhibition. It is filed as functional, cell-based.
Another test concerns PC-3. As to the kind of experiment: Antiproliferative activity against human PC-3 cells assessed as cell growth inhibition. The format is functional, cell-based.
In a further test the test system is LNCaP. As to the kind of experiment: Antiproliferative activity against human LNCAP cells assessed as cell growth inhibition. It is filed as functional, cell-based.
The test system of a further test is Bacillus subtilis. As to the kind of experiment: Antimicrobial activity against Bacillus subtilis assessed as bacterial growth inhibition. It is filed as functional.
A further test relates to Staphylococcus aureus. As to the kind of experiment: Antimicrobial activity against Staphylococcus aureus USA300 assessed as bacterial growth inhibition. It is filed as functional.
The subject of a further test is HepG2 2.2.15. As to the kind of experiment: Antiproliferative activity against human HepG2.2.15 cells assessed as cell growth inhibition. It is filed as functional, cell-based.
A further test deals with HCT-116. As to the kind of experiment: Antiproliferative activity against human HCT-116 cells assessed as cell growth inhibition. It is filed as functional, cell-based.
The test system of the next test is SW480. As to the kind of experiment: Antiproliferative activity against human SW480 cells assessed as cell growth inhibition. It is filed as functional, cell-based.
For test [1], the target named is 11-beta-hydroxysteroid dehydrogenase 1 (Mus musculus, UniProt P50172). As to the kind of experiment: Inhibition of mouse 11beta-HSD1.
Chain of 11-beta-hydroxysteroid dehydrogenase 1 (Mus musculus, UniProt P50172) (P50172 whole entry): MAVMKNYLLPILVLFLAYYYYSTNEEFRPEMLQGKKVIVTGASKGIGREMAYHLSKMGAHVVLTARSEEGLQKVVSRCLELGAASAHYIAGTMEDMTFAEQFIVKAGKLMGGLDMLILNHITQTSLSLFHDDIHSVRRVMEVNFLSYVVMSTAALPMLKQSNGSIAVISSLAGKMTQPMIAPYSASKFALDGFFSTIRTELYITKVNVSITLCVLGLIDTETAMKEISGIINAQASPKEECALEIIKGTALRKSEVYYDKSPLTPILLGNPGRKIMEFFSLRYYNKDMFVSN
For test [2], the target named is 11-beta-hydroxysteroid dehydrogenase 1 (Homo sapiens, UniProt P28845). As to the kind of experiment: Inhibition of human 11beta-HSD1.
Chain of 11-beta-hydroxysteroid dehydrogenase 1 (Homo sapiens, UniProt P28845) (P28845 whole entry): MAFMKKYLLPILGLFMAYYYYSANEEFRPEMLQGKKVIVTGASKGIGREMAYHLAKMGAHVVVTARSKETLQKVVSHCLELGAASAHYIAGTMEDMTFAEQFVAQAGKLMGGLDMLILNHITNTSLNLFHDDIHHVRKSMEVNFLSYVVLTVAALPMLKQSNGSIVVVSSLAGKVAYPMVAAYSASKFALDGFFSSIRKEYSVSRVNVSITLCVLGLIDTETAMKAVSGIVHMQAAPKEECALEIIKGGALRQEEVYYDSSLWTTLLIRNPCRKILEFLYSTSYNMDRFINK
For a further test, the system named is HeLa. As to the kind of experiment: Antiproliferative activity against human HeLa cells assessed as cell growth inhibition. The format is functional, cell-based.

In the case of `CC(=O)Oc1ccccc1C(=O)O[C@H]1CC[C@@]2(C)C(CC[C@]3(C)C2C[C@@H](O)C2C([C@@]4(C)CCCC(C)(C)O4)CC[C@]23C)C1(C)C` (stereo partly drawn), in the test on MCF7, the half-maximal inhibitory concentration (IC50) is 2.56 µM.
As for `CC1(C)CCC[C@](C)(C2CC[C@]3(C)C2[C@H](O)CC2[C@@]4(C)C/C(=C/c5ccc(C(F)(F)F)cc5)C(=O)C(C)(C)C4CC[C@]23C)O1` (stereo partly drawn), the IC50 is 35.4 µM in the test on PC-3 and below 38.9 µM in the test on LNCaP.
Take `CC(C)(O)[C@@H]1CC[C@@](C)([C@H]2CC[C@]3(C)C2[C@H](O)CC2[C@@]4(C)CC[C@H](OC(=O)C5CCNCC5)C(C)(C)C4CC[C@]23C)O1` (stereo partly drawn): the minimal inhibitory concentration (MIC) in the test on Bacillus subtilis is 2 µg/mL (≈ 3.4 µM); in the test on Staphylococcus aureus, 168 µg/mL (≈ 286 µM).
As to `COc1ccc(/C=C2/C[C@@]3(C)C(CC[C@]4(C)C3C[C@@H](O)C3C([C@@]5(C)CCCC(C)(C)O5)CC[C@]34C)C(C)(C)C2=O)cc1` (stereo partly drawn), the concentration for half-maximal inhibition (IC50) with PC-3 came out at 39.4 µM.
As to `CC1(C)CCC[C@](C)(C2CC[C@]3(C)C2[C@H](O)CC2[C@@]4(C)CC[C@H](OC(=O)CCC(=O)O)C(C)(C)C4CC[C@]23C)O1` (stereo partly drawn), in the test with HepG2 2.2.15, the IC50 amounted to 7.27 µM.
Same read-out and setting: the result for `CC1(C)CCC[C@](C)(C2CC[C@]3(C)C2[C@H](O)CC2[C@@]4(C)CC[C@H](OC(=O)c5cc(O)c(O)c(O)c5)C(C)(C)C4CC[C@]23C)O1` (stereo partly drawn) reads 7.27 µM.
For the compound `CC(=O)O[C@H]1CC[C@@]2(C)C(CC[C@]3(C)C2C[C@@H](O)C2C([C@@](C)(O)CCC=C(C)C)CC[C@]23C)C1(C)C` (stereo partly drawn), the 50% inhibitory concentration (IC50) was 37.3 µM with MCF7, 43.3 µM in the test on HCT-116 and 30 µM in the test on SW480.
Take `CC1(C)CCC[C@](C)(C2CC[C@]3(C)C2[C@H](O)CC2[C@@]4(C)C/C(=C/c5cccs5)C(=O)C(C)(C)C4CC[C@]23C)O1` (stereo partly drawn): the IC50 in the test with PC-3 is 47.3 µM; in the test with LNCaP it was below 38.9 µM.
As to `CO[C@H]1CC(=O)[C@]2(C)C1[C@H](OC(C)=O)CC1[C@@]3(C)CC[C@H](O)C(C)(C)C3CC[C@]12C` (stereo partly drawn), the IC50 in [1] turned out to be 0.41 µM; in [2] it was 0.044 µM.
Take `CC1(C)CCC[C@](C)(C2CC[C@]3(C)C2[C@H](O)CC2[C@@]4(C)CC[C@H](OC(=O)c5ccccc5O)C(C)(C)C4CC[C@]23C)O1` (stereo partly drawn): the IC50 in the test with HepG2 2.2.15 was determined as 7.27 µM.
Take `CC1(C)CCC[C@](C)(C2CC[C@]3(C)C2[C@H](O)CC2[C@@]4(C)C/C(=C/c5ccc(O)cc5)C(=O)C(C)(C)C4CC[C@]23C)O1` (stereo partly drawn): the IC50 was 11.7 µM in the test on PC-3 and below 38.9 µM in the test on LNCaP.
`COc1cc(/C=C2/C[C@@]3(C)C(CC[C@]4(C)C3C[C@@H](O)C3C([C@@]5(C)CCCC(C)(C)O5)CC[C@]34C)C(C)(C)C2=O)cc(OC)c1OC` (stereo partly drawn): the concentration for half-maximal inhibition (IC50) in the test on PC-3 was 45.6 µM.
As for `CC(C)(O)[C@@H]1CC[C@@](C)([C@H]2CC[C@]3(C)C2[C@H](O)CC2[C@@]4(C)CC[C@H](O)C(C)(C)C4CC[C@]23C)O1` (stereo partly drawn), the IC50 in the test with HeLa amounted to 17.7 µM.
Turning to `CO[C@@H]1CC(=O)[C@]2(C)C1[C@H](OC(C)=O)CC1[C@@]3(C)CC[C@H](O)C(C)(C)C3CC[C@]12C` (stereo partly drawn), the figures for the IC50 in test [1] and in test [2] were 3.3 µM and 0.015 µM, respectively.
As for `CC(C)(O)[C@H]1CC[C@@](C)([C@H]2CC[C@]3(C)C2[C@H](O)CC2[C@@]4(C)CC[C@H](OC(=O)C5CCNCC5)C(C)(C)C4CC[C@]23C)O1` (stereo partly drawn), the figures for the minimum inhibitory concentration (MIC) in the test with Bacillus subtilis and with Staphylococcus aureus were 2 µg/mL (≈ 3.4 µM) and 8 µg/mL (≈ 13.6 µM), respectively.
As for `CC1(C)CCC[C@](C)(C2CC[C@]3(C)C2[C@H](O)CC2[C@@]4(C)CC[C@H](OC(=O)CCCC(=O)O)C(C)(C)C4CC[C@]23C)O1` (stereo partly drawn), the half-inhibitory concentration (IC50) in the test with HepG2 2.2.15 stood at 7.27 µM.
Turning to `CC(C)(O)[C@H]1CC[C@@](C)([C@H]2CC[C@]3(C)C2[C@H](O)CC2[C@@]4(C)CC[C@H](O)C(C)(C)C4CC[C@]23C)O1` (stereo partly drawn), the IC50 in the test with HeLa was 4.58 µM.
On to `CC1(C)CCC[C@](C)(C2CC[C@]3(C)C2[C@H](O)CC2[C@@]4(C)CC[C@H](OC(=O)c5c(Cl)c(Cl)c(Cl)c(Cl)c5C(=O)O)C(C)(C)C4CC[C@]23C)O1` (stereo partly drawn), for which the IC50 in the test on MCF7 amounted to 8.62 µM.
`CC(=O)O[C@@H]1CC2[C@@]3(C)CC[C@H](O)C(C)(C)C3CC[C@@]2(C)[C@]2(C)C(=O)C=CC12` (stereo partly drawn) registered an IC50 in [2] of 0.034 µM.

The record behind these values is ChEMBL document CHEMBL5233223, “Dammarane-type leads panaxadiol and protopanaxadiol for drug discovery: Biological activity and structural modification” (Eur J Med Chem, 2020).
